Reference: article PMC10465233, “Lys-urea-Aad, Lys-urea-Cmc and Lys-urea-Cms as potential pharmacophores for the design of PSMA-targeted radioligands to reduce off-target uptake in kidneys and salivary glands” (Theranostics, 2023)
Where “and” joins values, the source holds several entries; their conditions need not be identical. Equal values may be shown once.

What was measured:
PSMA = target: T1, PSMA (Homo sapiens, UniProt Q04609); test: In vitro competition binding assay, LNCaP cells, [^18F]DCFPyL as radioligand
T1 construct: host or cells: LNCaP prostate cancer cells
Description: The LNCaP cells obtained from ATCC (via Cedarlane, Burlington, Canada) were cultured in RPMI 1640 medium supplemented with 10% FBS, penicillin (100 U/mL) and streptomycin (100 μg/mL) at 37 °C in a Panasonic Healthcare (Tokyo, Japan) MCO-19AIC humidified incubator containing 5% CO2. The cells were confirmed pathogen free by the IMPACT Rodent Pathogen Test (IDEXX BioAnalytics). Cells grown to 80-90% confluence were then washed with sterile PBS and collected after trypsinization. The cell concentration was counted in triplicate using a hemocytometer and a manual laboratory counter.
In vitro competition binding assays were conducted as previously reported using LNCaP prostate cancer cells and [^18F]DCFPyL as the radioligand [10]-[12],[14]. Briefly, LNCaP cells (400,000/well) were plated onto a 24-well poly-D-lysine coated plate for 48 h. Growth media was removed and replaced with HEPES buffered saline (50 mM HEPES, pH 7.5, 0.9% sodium chloride) and the cells were incubated for 1 h at 37 °C. [^18F]DCFPyL (0.1 nM) was added to each well (in triplicate) containing various concentrations (0.5 mM - 0.05 nM) of tested ligands. Non-specific binding was determined in the presence of 10 µM non-radiolabeled DCFPyL. The assay mixtures were further incubated for 1 h at 37 °C with gentle agitation. Then, the buffer and hot ligand were removed, and cells were washed twice with cold HEPES buffered saline. To harvest the cells, 400 µL of 0.25% trypsin solution was added to each well. Radioactivity was measured on an automatic gamma counter. Nonlinear regression analyses and Ki calculations were performed using the GraphPad Prism 7 software.

LNCaP tumor-bearing mice [1] = test: Ex vivo biodistribution in LNCaP tumor-bearing mice; design: species or system mouse; conditions: 1 h post-injection; for Reduction of average kidney uptake by co-injection of DCFPyL: DCFPyL 0.5 mg
How it was run: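 Male NSG or NRG mice bearing subcutaneous LNCaP tumours (5-8 mm) were injected with 2-4 MBq radioligand, with 0.5 mg nonradioactive DCFPyL co-injected for blocking. At set time points, blood and organs were collected, weighed and gamma-counted.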

LNCaP tumor-bearing mice [2] = test: PET/CT imaging in LNCaP tumor-bearing mice; assay type: in vivo, mouse; conditions: 1 h post-injection
Description: Imaging, biodistribution and radioligand therapy experiments were performed following previously published procedures using male NOD-scid IL2Rg^null (NSG) or NOD.Cg-Rag1^tm1MomIl2rg^tm1Wjl/SzJ (NRG) mice [10]-[12],[14]-[15]. The experiments were conducted according to the guidelines established by the Canadian Council on Animal Care and approved by Animal Ethics Committee of the University of British Columbia. The mice were briefly sedated by inhalation of 2% isoflurane in oxygen, and implanted subcutaneously with 1×10^7 LNCaP cells behind the left shoulder. The mice were imaged or used in biodistribution studies when the tumor grew to 5-8 mm in diameter over a period of 4-5 weeks.
PET/CT imaging experiments were conducted using a Siemens (Knoxville, TN, USA) Inveon micro PET/CT scanner. Each tumor-bearing mouse was injected with ~6-8 MBq of ^68Ga-labeled tracer through a lateral caudal tail vein. After 50 min post-injection, a 10-min CT scan was conducted first for localization and attenuation correction after segmentation for reconstructing the PET images, followed by a 10-min static PET imaging acquisition.

22Rv1 tumor model = tested on: 22Rv1 tumor model; design: method as in PMID 34453203; conditions: 1 h post-injection, 22Rv1, BALB/c nude; cited from earlier work
[3] = blocked, co-injected with DCFPyL (0.5 mg)

T1 sequence (Q04609 whole entry): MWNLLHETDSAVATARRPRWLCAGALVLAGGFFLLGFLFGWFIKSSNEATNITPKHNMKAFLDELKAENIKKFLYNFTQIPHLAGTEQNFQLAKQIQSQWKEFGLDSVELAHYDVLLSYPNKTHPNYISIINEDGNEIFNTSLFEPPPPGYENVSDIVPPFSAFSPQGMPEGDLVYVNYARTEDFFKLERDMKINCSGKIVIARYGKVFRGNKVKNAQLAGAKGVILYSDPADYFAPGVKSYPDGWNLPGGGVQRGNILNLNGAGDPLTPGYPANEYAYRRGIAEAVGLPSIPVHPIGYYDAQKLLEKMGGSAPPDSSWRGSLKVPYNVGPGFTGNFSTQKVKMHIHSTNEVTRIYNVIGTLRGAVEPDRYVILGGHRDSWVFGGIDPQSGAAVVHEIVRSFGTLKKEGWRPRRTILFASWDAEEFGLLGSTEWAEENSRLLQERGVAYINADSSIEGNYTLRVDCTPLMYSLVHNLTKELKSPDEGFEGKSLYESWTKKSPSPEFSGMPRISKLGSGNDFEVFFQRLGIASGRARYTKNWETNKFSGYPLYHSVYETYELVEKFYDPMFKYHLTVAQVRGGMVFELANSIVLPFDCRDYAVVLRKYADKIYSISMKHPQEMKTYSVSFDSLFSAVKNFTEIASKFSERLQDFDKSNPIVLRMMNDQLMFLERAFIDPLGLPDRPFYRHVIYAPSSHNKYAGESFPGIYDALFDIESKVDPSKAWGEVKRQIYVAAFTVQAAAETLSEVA

## COc1ccc(CCCC(=O)NCC(=O)N[C@@H](CCCCNC(=O)CN2CCN(CC(=O)[O-])CCN(CC(=O)[O-])CCN(CC(=O)[O-])CC2)C(=O)NC[C@H]2CC[C@H](C(=O)N[C@@H](Cc3c4ccccc4cc4ccccc34)C(=O)NCCCC[C@H](NC(=O)N[C@@H](COCC(=O)O)C(=O)O)C(=O)O)CC2)cc1.[Lu+3] [Lu-HTK04028]
PSMA
  Ki: 13.9 ± 3.2 nM

## COc1ccc(CCCC(=O)NCC(=O)N[C@@H](CCCCNC(=O)CN2CCN(CC(=O)[O-])CCN(CC(=O)[O-])CCN(CC(=O)[O-])CC2)C(=O)NC[C@H]2CC[C@H](C(=O)N[C@@H](Cc3c4ccccc4cc4ccccc34)C(=O)NCCCC[C@H](NC(=O)N[C@@H](CSCC(=O)O)C(=O)O)C(=O)O)CC2)cc1.[Lu+3] [Lu-HTK04048]
PSMA
  Ki: 1.4 ± 1 nM

## O=C([O-])CN1CCN(CC(=O)[O-])CCN(CC(=O)NCC2CCC(C(=O)NC(Cc3c4ccccc4cc4ccccc34)C(=O)NCCCCC(NC(=O)NC(CSCC(=O)O)C(=O)O)C(=O)O)CC2)CCN(CC(=O)[O-])CC1.[68Ga+3] (stereo not shown) [[^68Ga]Ga-HTK03177]
LNCaP tumor-bearing mice [1]
  Adrenal glands uptake: 0.46 ± 0.17 %ID/g
  Blood uptake: 0.70 ± 0.06 %ID/g
  Blood:Salivary gland uptake ratio: 3.14 ± 0.19
  Bone uptake: 0.10 ± 0.03 %ID/g
  Brain uptake: 0.02 ± 0.00 %ID/g
  Fat uptake: 0.09 ± 0.04 %ID/g
  Heart uptake: 0.21 ± 0.01 %ID/g
  Intestines uptake: 0.21 ± 0.02 %ID/g
  Kidneys uptake: 7.76±1.00 %ID/g and < 8.0 %ID/g
  Lacrimal glands uptake: 0.12 ± 0.06 %ID/g
  Liver uptake: 0.33 ± 0.20 %ID/g
  Lungs uptake: 0.61 ± 0.08 %ID/g
  Muscle uptake: 0.10 ± 0.01 %ID/g
  Pancreas uptake: 0.14 ± 0.01 %ID/g
  Salivary glands uptake: 0.22±0.02 %ID/g and < 0.25 %ID/g
  Spleen uptake: 0.42 ± 0.15 %ID/g
  Stomach uptake: 0.15 ± 0.09 %ID/g
  Testes uptake: 0.25 ± 0.07 %ID/g
  Thyroid uptake: 0.23 ± 0.01 %ID/g
  Tumor uptake: 24.7±6.85 %ID/g and 21-25 %ID/g
  Tumor:Blood uptake ratio: 36.1±12.5
  Tumor:Kidney uptake ratio: 3.25±1.16
  Tumor:Muscle uptake ratio: 265±103
  Tumor:Salivary gland uptake ratio: 112±33.1
  Reduction of average kidney uptake by co-injection of DCFPyL: 78%
LNCaP tumor-bearing mice [1]; [3]
  Adrenal glands uptake: 0.61 ± 0.38 %ID/g
  Blood uptake: 0.85 ± 0.15 %ID/g
  Blood:Salivary gland uptake ratio: 6.07 ± 2.53
  Bone uptake: 0.24 ± 0.17 %ID/g
  Brain uptake: 0.02 ± 0.00 %ID/g
  Fat uptake: 0.20 ± 0.16 %ID/g
  Heart uptake: 0.23 ± 0.04 %ID/g
  Intestines uptake: 0.69 ± 0.76 %ID/g
  Kidneys uptake: 1.73 ± 0.36 %ID/g
  Lacrimal glands uptake: 0.15 ± 0.10 %ID/g
  Liver uptake: 0.37 ± 0.22 %ID/g
  Lungs uptake: 0.54 ± 0.06 %ID/g
  Muscle uptake: 0.13 ± 0.05 %ID/g
  Pancreas uptake: 0.54 ± 0.54 %ID/g
  Salivary glands uptake: 0.15 ± 0.04 %ID/g
  Spleen uptake: 0.25 ± 0.18 %ID/g
  Stomach uptake: 0.12 ± 0.05 %ID/g
  Testes uptake: 0.36 ± 0.14 %ID/g
  Thyroid uptake: 0.21 ± 0.06 %ID/g
  Tumor uptake: 0.74 ± 0.12 %ID/g
  Tumor:Blood uptake ratio: 0.89 ± 0.19
  Tumor:Kidney uptake ratio: 0.43 ± 0.05
  Tumor:Muscle uptake ratio: 5.50 ± 2.68
  Tumor:Salivary gland uptake ratio: 5.05 ± 0.77
LNCaP tumor-bearing mice [2]
  Kidney uptake in PET images: moderate

## O=C([O-])CN1CCN(CC(=O)[O-])CCN(CC(=O)NCC2CCC(C(=O)NC(Cc3c4ccccc4cc4ccccc34)C(=O)NCCCCC(NC(=O)NC(COCC(=O)O)C(=O)O)C(=O)O)CC2)CCN(CC(=O)[O-])CC1.[68Ga+3] (stereo not shown) [[^68Ga]Ga-HTK03187]
LNCaP tumor-bearing mice [1]
  Adrenal glands uptake: 0.26 ± 0.06 %ID/g
  Blood uptake: 0.67 ± 0.10 %ID/g
  Blood:Salivary gland uptake ratio: 4.27 ± 0.74
  Bone uptake: 0.13 ± 0.03 %ID/g
  Brain uptake: 0.02 ± 0.00 %ID/g
  Fat uptake: 0.07 ± 0.02 %ID/g
  Heart uptake: 0.19 ± 0.04 %ID/g
  Intestines uptake: 0.23 ± 0.05 %ID/g
  Lacrimal glands uptake: 0.09 ± 0.03 %ID/g
  Liver uptake: 0.21 ± 0.05 %ID/g
  Lungs uptake: 0.52 ± 0.09 %ID/g
  Muscle uptake: 0.09 ± 0.01 %ID/g
  Pancreas uptake: 0.12 ± 0.02 %ID/g
  Salivary glands uptake: 0.16±0.02 %ID/g and < 0.25 %ID/g
  Spleen uptake: 0.17 ± 0.02 %ID/g
  Stomach uptake: 0.08 ± 0.05 %ID/g
  Testes uptake: 0.15 ± 0.03 %ID/g
  Thyroid uptake: 0.18 ± 0.02 %ID/g
  Tumor uptake: 21.1±3.62 %ID/g and 21-25 %ID/g
  Tumor:Blood uptake ratio: 32.2±8.53
  Tumor:Kidney uptake ratio: 7.67±2.10
  Tumor:Muscle uptake ratio: 249±61.2
  Tumor:Salivary gland uptake ratio: 133±14.0
  Reduction of average kidney uptake by co-injection of DCFPyL: 59%
LNCaP tumor-bearing mice [1]; [3]
  Adrenal glands uptake: 0.13 ± 0.06 %ID/g
  Blood uptake: 0.33 ± 0.16 %ID/g
  Blood:Salivary gland uptake ratio: 3.64 ± 0.44
  Bone uptake: 0.06 ± 0.02 %ID/g
  Brain uptake: 0.01 ± 0.00 %ID/g
  Fat uptake: 0.06 ± 0.04 %ID/g
  Heart uptake: 0.10 ± 0.05 %ID/g
  Intestines uptake: 0.13 ± 0.03 %ID/g
  Kidneys uptake: 1.15 ± 0.37 %ID/g
  Lacrimal glands uptake: 0.06 ± 0.03 %ID/g
  Liver uptake: 0.16 ± 0.05 %ID/g
  Lungs uptake: 0.31 ± 0.10 %ID/g
  Muscle uptake: 0.08 ± 0.06 %ID/g
  Pancreas uptake: 0.07 ± 0.02 %ID/g
  Salivary glands uptake: 0.09 ± 0.04 %ID/g
  Spleen uptake: 0.12 ± 0.03 %ID/g
  Stomach uptake: 0.03 ± 0.01 %ID/g
  Testes uptake: 0.15 ± 0.01 %ID/g
  Thyroid uptake: 0.12 ± 0.05 %ID/g
  Tumor uptake: 0.35 ± 0.09 %ID/g
  Tumor:Blood uptake ratio: 1.14 ± 0.25
  Tumor:Kidney uptake ratio: 0.31 ± 0.08
  Tumor:Muscle uptake ratio: 5.34 ± 2.25
  Tumor:Salivary gland uptake ratio: 4.13 ± 0.92
LNCaP tumor-bearing mice [1]; listed as [^68Ga]HTK03187
  Tumor uptake: ~ 20 %ID/g
LNCaP tumor-bearing mice [2]
  Kidney uptake in PET images: relatively lower

## O=C([O-])CN1CCN(CC(=O)[O-])CCN(CC(=O)NCC2CCC(C(=O)NC(Cc3ccc4ccccc4c3)C(=O)NCCCCC(NC(=O)NC(CCC(=O)O)C(=O)O)C(=O)O)CC2)CCN(CC(=O)[O-])CC1.[68Ga+3] (stereo not shown) [[^68Ga]Ga-PSMA-617]
22Rv1 tumor model
  Tumor uptake: 3.41±1.31 %ID/g
